For 1 compound, Average particle size results are on record in patent US8211470B2, “Method for preparing nano-scale or amorphous particle using solid fat as a solvent” (Bio-Synectics Inc., priority 2003, dated 2012).

This data set in a line: Particle size of the final powder dispersed in distilled water, particle size analyzer (Mastersizer Microplus). Format: physicochemical. On the procedure:
Next, the pressure inside the collecting reactor containing the sprayed solid powders was elevated to about 150 atm by adding carbon dioxide gas into the collecting reactor. The pressure inside the collecting reactor was constantly maintained to the pressure of 100 atm or more by controlling a vent valve of the collecting reactor, while continuously adding the carbon dioxide gas. Under the constantly maintained pressure, the cetyl alcohol used as a solid fat was extracted for 8 hours with the gas of the supercritical fluid to obtain 1.8 g of fat-removed fine solid particles. The particle size of the obtained powdered mixture was determined by a particle size analyzer (Mastersizer Microplus) by dispersing the obtained powdered mixture into distilled water, and the result was shown in Table 1.
30 g of cetyl alcohol and 2 g of ketoconazole were placed into a 250 ml volume beaker and heated to 80° C. with stirring until the mixture became completely melt to form a transparent liquid. After completely melting the mixture, additional stirring for about 10 minutes was further carried out for homogeneous mixing. Then, the melted mixture was poured into a stainless steel plate which was precooled to 10° C. or less for rapid cooling and solidifying, thereby obtaining the solid product in which the active ingredient was dispersed uniformly into the fat in the form of fine particles. […]

`CC(=O)N1CCN(c2ccc(OCC3COC(Cn4ccnc4)(c4ccc(Cl)cc4Cl)O3)cc2)CC1` (stereo not shown) [Raw material (Active ingredient), ketoconazole] returned an Average particle size of 10.41 μm.
